Key:
[1] = TH17 cell viability (Prestoblue); format: cell-based; settings: human; 1 μM compound, after 5 days, percentage of DMSO treated cells
Protocol: (§1) Peripheral blood mononuclear cells (PBMCs) were sourced from freshly prepared leukocyte enriched plasma (buffy coat) from healthy volunteers from which PBMCs were isolated by density gradient centrifugation using Ficoll-Paque™ PLUS (GE Healthcare). Naïve CD4+ T cells were isolated using the Naïve CD4+ T cell Isolation Kit II (Miltenyi Biotec) as per manufacturer's instructions. CD4+ T cells were plated at 5×10^4 cells/well in 96 well plates pre-coated with immobilized human (h)-αCD3 antibody (eBioscience) then differentiated to TH17 cells using h-αCD28, h-αIFN-γ, h-αIL-4, h-IL-6, h-IL-23, h-IL-1β, h-TGF-β1 (eBioscience) and maintained in a cell culture incubator at 37° C. with 5% CO2 in TexMACS Medium (Miltenyi Biotec) supplemented with 1% Penicillin/Streptomycin (Lonza) over 5 days.
Cells were assayed for viability in the presence or absence of 1 μM compound using Prestoblue® Cell Viability Reagent (Life Technologies) as per manufacturer's instructions after 30 minutes incubation of TH17 cells with reagent. Absorbance was measured at 570 nm and 600 nm using a microplate reader (Perkin Elmer) and data were analyzed as per manufacturer's instructions. Cell viability was determined after 5 days and expressed as a percentage of DMSO treated cells.

RORα LBD [2] = molecular target: T1, RORα LBD (Homo sapiens, UniProt P35398); experiment: TR-FRET NCoR1-D2 co-repressor recruitment to RORα LBD; format: biochemical
T1 construct: purified GST-tagged (i) RORγ LBD or (ii) RORα LBD; purchased Life Technologies
T1 sequence (P35398 272-510 limits assumed): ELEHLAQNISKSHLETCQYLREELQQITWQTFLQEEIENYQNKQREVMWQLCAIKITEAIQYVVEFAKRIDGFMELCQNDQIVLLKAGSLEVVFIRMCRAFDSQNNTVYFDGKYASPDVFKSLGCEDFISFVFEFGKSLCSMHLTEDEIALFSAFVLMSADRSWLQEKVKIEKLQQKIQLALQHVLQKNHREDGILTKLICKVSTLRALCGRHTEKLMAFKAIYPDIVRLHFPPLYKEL
Source text: (§2) The Time-Resolved Fluorescence Resonance Energy Transfer (TR-FRET) assay kit (Life Technologies) was used to measure compound efficacy to disrupt or enhance ligand-mediated interaction of the co-activator and co-repressor peptides with the purified GST-tagged (i) RORγ LBD or (ii) RORα LBD. The RORγ LBD and RORα LBD each have a basal level of interaction with the co-activator D22 or co-repressor NCoR1-D2 in the absence of ligand, thus it is possible to identify compounds that inhibit or induce RORγ and/or RORα co-activator/co-repressor interactions, thus determining RORα, RORγ, or RORα/RORγ compound selectivity. The assay was performed as per manufacturer's instructions and TR-FRET was assessed 2 and 20 hours post-assay initiation. Compounds were identified to (i) have no impact on either co-activator displacement or […] from the assessed LBD (ii) promote co-activator displacement from the assessed LBD (iii) promote co-repressor recruitment to the assessed LBD or (iv) concurrently promote co-activator displacement from the assessed LBD and co-repressor recruitment to the assessed LBD.

TH17 cells = experiment: TH17 cellular proliferation (Prestoblue); format: cell-based; settings: Homo sapiens, 120 h; 3 μM compound, after 5 day TH17 differentiation, relative to DMSO treated TH17 cells; read-out: % change in TH17 cell number
Protocol: as §1
Cellular proliferation was assessed in the presence or absence of 3 μM compound using Prestoblue® Cell Viability Reagent (Life Technologies) as per manufacturer's instructions using absorbance as the output measured by a microplate reader (Perkin Elmer) after 30 minutes of incubation. A standard curve developed by plotting varying cell numbers versus absorbance was used to assess differences in cellular proliferation between compound treated or untreated cells after the 5 day TH17 differentiation period.

IL-17AF = experiment: TH17 cytokine inhibition measured by ELISA (IL-17AF); format: cell-based; settings: 120 h; human TH17 cells, 5 days differentiation, ELISA of supernatants, 0.1% DMSO
Protocol: as §1
(§3) Human CD4+ T cells were differentiated to TH17 cells as described in the presence or absence of various concentrations of compounds in a final concentration of 0.1% DMSO in TexMACS medium. Supernatants were collected and stored at −20° C. until they were to be assayed for IL-17A, IL-17F, IL-17AF, IL-21 and/or IL-22 levels as determined by Ready-Set-Go ELISA kits (eBioscience) as per manufacturer's instructions. Endpoint absorbance was read at 450 nm and 570 nm according to manufacturer's instructions (eBioscience) using a microplate reader (Perkin Elmer). The percentage of cytokine inhibition was calculated with reference to DMSO treated cells and the IC50s were determined by GraphPad Prism software and presented in the table below.

IL-22 = experiment: TH17 cytokine inhibition measured by ELISA (IL-22); format: cell-based; settings: 120 h; human TH17 cells, 5 days differentiation, ELISA of supernatants, 0.1% DMSO
Protocol: as §1, §3

RORγ LBD [3] = molecular target: T2, RORγ LBD (Homo sapiens, UniProt P51449); experiment: TR-FRET D22 co-activator displacement from RORγ LBD; format: biochemical; design: purified GST-tagged (i) RORγ LBD or (ii) RORα LBD; purchased Life Technologies
T2 sequence (P51449 269-508 limits assumed): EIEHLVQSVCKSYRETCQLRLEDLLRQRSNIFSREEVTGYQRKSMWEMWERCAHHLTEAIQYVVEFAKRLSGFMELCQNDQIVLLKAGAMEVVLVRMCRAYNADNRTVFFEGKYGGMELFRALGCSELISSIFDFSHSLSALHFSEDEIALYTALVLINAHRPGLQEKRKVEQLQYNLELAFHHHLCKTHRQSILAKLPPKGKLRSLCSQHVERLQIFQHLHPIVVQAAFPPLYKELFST
Source text: as §2

IL-17F = experiment: TH17 cytokine inhibition measured by ELISA (IL-17F); format: cell-based; settings: 120 h; human TH17 cells, 5 days differentiation, ELISA of supernatants, 0.1% DMSO
Protocol: as §1, §3

IL-17A = experiment: TH17 cytokine inhibition measured by ELISA (IL-17A); format: cell-based; settings: 120 h; human TH17 cells, 5 days differentiation, ELISA of supernatants, 0.1% DMSO
Protocol: as §1, §3

RORγ LBD [4] = molecular target: T2, RORγ LBD; experiment: TR-FRET NCoR1-D2 co-repressor recruitment to RORγ LBD; format: biochemical; design: purified GST-tagged (i) RORγ LBD or (ii) RORα LBD; purchased Life Technologies
Source text: as §2

RORα LBD [5] = molecular target: T1, RORα LBD; experiment: TR-FRET D22 co-activator displacement from RORα LBD; format: biochemical
Source text: as §2

IL-21 = experiment: TH17 cytokine inhibition measured by ELISA (IL-21); format: cell-based; settings: 120 h; human TH17 cells, 5 days differentiation, ELISA of supernatants, 0.1% DMSO
Protocol: as §1, §3

[6] = TR-FRET assessed 2 hr post-assay initiation, read-out: RORα EC50 NCoR1-D2 co-repressor recruitment, 2 hr
[7] = TR-FRET assessed 20 hr post-assay initiation, read-out: RORα EC50 NCoR1-D2 co-repressor recruitment, 20 hr
[8] = TR-FRET assessed 2 hr post-assay initiation, read-out: RORγ EC50 D22 co-activator displacement, 2 hr
[9] = TR-FRET assessed 20 hr post-assay initiation, read-out: RORγ EC50 D22 co-activator displacement, 20 hr
[10] = TR-FRET assessed 2 hr post-assay initiation, read-out: RORγ EC50 NCoR1-D2 co-repressor recruitment, 2 hr
[11] = TR-FRET assessed 20 hr post-assay initiation, read-out: RORγ EC50 NCoR1-D2 co-repressor recruitment, 20 hr
[12] = TR-FRET assessed 2 hr post-assay initiation, read-out: RORα EC50 D22 co-activator displacement, 2 hr
[13] = TR-FRET assessed 20 hr post-assay initiation, read-out: RORα EC50 D22 co-activator displacement, 20 hr

EC50 (RORα LBD [2]; [6])	EC50 (RORα LBD [2]; [7])	IC50 (IL-17AF)	IC50 (IL-22)	EC50 (RORγ LBD [3]; [8])	EC50 (RORγ LBD [3]; [9])	IC50 (IL-17F)	IC50 (IL-17A)	EC50 (RORγ LBD [4]; [10])	EC50 (RORγ LBD [4]; [11])	EC50 (RORα LBD [5]; [12])	EC50 (RORα LBD [5]; [13])	IC50 (IL-21)	melting point	Compound	viability at 5 days, 1 µM [1]	inhibition at 3 µM (TH17 cells)
> 30 µM	< 30 µM	< 10 µM	< 10 µM	< 30 µM	< 30 µM	< 10 µM	< 10 µM	< 30 µM	< 30 µM	< 30 µM	< 30 µM	< 10 µM	–	Cc1cc(-c2ccc3c(c2)CCN3Cc2ccc(C(O)(C(F)(F)F)C(F)(F)F)cc2)[nH]n1 [Example 7, 1,1,1,3,3,3-hexafluoro-2-(4-((5-(3-methyl-1H-pyrazol-5-yl)indolin-1-yl)methyl)phenyl)propan-2-ol]	> 80%	> 50%
< 30 µM	> 30 µM	< 10 µM	< 10 µM	< 30 µM	< 30 µM	< 10 µM	< 10 µM	< 30 µM	> 30 µM	> 30 µM	< 30 µM	< 10 µM	191 to 195 °C	OC(c1ccc(CN2CCc3cc(-c4cn[nH]c4)ccc32)cc1)(C(F)(F)F)C(F)(F)F [Example 8, 2-(4-((5-(1H-pyrazol-4-yl)indolin-1-yl)methyl)phenyl)-1,1,1,3,3,3-hexafluoropropan-2-ol]	> 80%	> 50%
> 30 µM	< 30 µM	> 10 µM	< 10 µM	> 30 µM	> 30 µM	< 10 µM	< 10 µM	< 30 µM	> 30 µM	> 30 µM	< 30 µM	< 10 µM	–	Cc1nnc(-c2ccc3c(c2)CCN3Cc2ccc(C(O)(C(F)(F)F)C(F)(F)F)cc2)o1 [Example 9, 1,1,1,3,3,3-hexafluoro-2-(4-((5-(5-methyl-1,3,4-oxadiazol-2-yl)indolin-1-yl)methyl)phenyl)propan-2-ol]	> 80%	> 50%
